For this data set, the system named is diabetic foot ulcers. Conditions: human, in vivo. As for the experimental part:
The study was designed as a randomized, parallel-group, double-blind, placebo-controlled, multi-center trial. After 14-days of best-of-care to evaluate ulcer healing and ensure the wounds were chronic, four-weeks of active treatment were then followed by eight weeks of observation and assessment. The study compared the effects of two concentrations of NorLeu^3-A(1-7) and placebo, measuring both clinical efficacy and safety. Sustained tissue integrity was evaluated for all subjects during a follow-up period lasting 12 weeks after complete wound closure.
Subjects were randomized in a 1:1:1 ratio to one of the three treatment groups: • Group 1: Placebo Vehicle Control without NorLeu^3-A(1-7) (also referred to as “DSC127”) (2% Hydroxyethyl Cellulose (HEC) with 0.1% methyl paraben, 0.02% propyl paraben) • Group 2: 0.03% NorLeu^3-A(1-7) in Vehicle • Group 3: 0.01% NorLeu^3-A(1-7) in Vehicle
The four-week treatment period required daily application of the treatment to the wound site. The first application each week was at the clinic and for the remainder of the week the patient self-administered the treatment.
If wound healing occurred during the treatment or assessment periods a final assessment visit was conducted and the integrity was assessed 4 and 12 weeks later (usually weeks 16 and 24 of the study). […]

The structures appear in SMILES notation. Non-standard residues stand in square brackets, D forms with d. Residues, ends and D or L forms follow the SMILES beside them. Nle = CCCC[C@H](N)C(=O)O

With `CCCC[C@H](NC(=O)[C@H](CCCNC(=N)N)NC(=O)[C@@H](N)CC(=O)O)C(=O)N[C@@H](Cc1ccc(O)cc1)C(=O)N[C@H](C(=O)N[C@@H](Cc1c[nH]cn1)C(=O)N1CCC[C@H]1C(=O)O)[C@@H](C)CC` [NorLeu^3-A(1-7), Asp-Arg-Nle-Tyr-Ile-His-Pro] (H-DR[Nle]YIHP-OH; N-terminus and C-terminus assumed), the “adverse events associated with treatment” value is “no significant adverse events” and the tolerability result is listed as “well-tolerated”.
